Test results published in patent US9765075B2, “Substituted bridged urea analogs as sirtuin modulators” (GLAXOSMITHKLINE LLC, priority 2013, dated 2017).
Read-outs that look alike come from different tables or passages of the source.

Biological target: T1, SIRT1 (Homo sapiens, UniProt Q96EB6)
T1 sequence (Q96EB6 1-747): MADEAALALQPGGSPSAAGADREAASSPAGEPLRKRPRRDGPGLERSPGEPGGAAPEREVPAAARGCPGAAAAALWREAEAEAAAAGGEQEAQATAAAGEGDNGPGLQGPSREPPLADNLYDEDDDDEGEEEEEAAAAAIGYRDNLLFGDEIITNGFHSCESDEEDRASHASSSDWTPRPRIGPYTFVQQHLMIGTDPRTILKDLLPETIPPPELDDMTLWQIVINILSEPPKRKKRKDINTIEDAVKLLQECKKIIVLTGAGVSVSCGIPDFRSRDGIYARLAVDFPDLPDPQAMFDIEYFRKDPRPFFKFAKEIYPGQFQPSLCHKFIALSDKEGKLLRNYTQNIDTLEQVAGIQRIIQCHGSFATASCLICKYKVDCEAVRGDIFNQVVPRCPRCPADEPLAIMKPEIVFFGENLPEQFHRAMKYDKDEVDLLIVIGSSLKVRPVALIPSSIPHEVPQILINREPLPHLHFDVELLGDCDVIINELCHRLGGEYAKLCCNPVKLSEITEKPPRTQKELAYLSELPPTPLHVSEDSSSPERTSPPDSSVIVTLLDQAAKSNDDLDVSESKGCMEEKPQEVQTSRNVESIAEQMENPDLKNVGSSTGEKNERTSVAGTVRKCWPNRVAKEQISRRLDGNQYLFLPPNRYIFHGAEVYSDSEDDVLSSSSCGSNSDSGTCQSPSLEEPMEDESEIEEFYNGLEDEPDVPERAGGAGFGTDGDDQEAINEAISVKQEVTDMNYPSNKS
Test: Trp mass spectrometry assay (SIRT1 activation)
Format: biochemical
Conditions: for Emax: percent maximum fold activation of SIRT1, read-out: Tryp % Fold Act
How it was run: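 N-His-tagged SIRT1 (10 nM), expressed in E. coli, was incubated with 0.5 μM Ac-RHKK(Ac)W-NH2 peptide and 120 μM NAD+ for 25 min at 25 °C in HEPES pH 7.5 with […]. The reaction was stopped with formic acid and O-acetyl-ADP-ribose or deacetylated peptide was quantified by mass spectrometry. Results are given as EC1.5 and percent maximal activation relative to DMSO control.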

[1] = Trp mass spectrometry assay, EC1.5 = concentration giving 150% activation of SIRT1
[2] = Trp mass spectrometry assay, EC1.5 = concentration of test compound that results in 150% activation of SIRT1
[3] = concentration of test compound that results in 150% activation of SIRT1, Trp peptide substrate

| Tryp AVG EC1.5 (μM) [1] | Emax (Trp mass spectrometry assay) [%] | Tryp AVG EC1.5 (μM) [2] | Tryp AVG EC1.5 (μM) [3] | Emax (Trp peptide substrate) [%] | Compound |
| --- | --- | --- | --- | --- | --- |
| A (EC1.5<1 μM) | ≥ 150 |  |  |  | CS(=O)(=O)c1cccc(-c2ccc3c(n2)N(C(=O)Nc2cc(-c4cnco4)ccn2)[C@H]2CCN3C2)c1 [Example 723] |
| A (EC1.5<1 μM) | ≥ 150 |  |  |  | O=C(Nc1cc(-c2cnco2)ccn1)N1c2nc(-c3cncc(F)c3)ccc2N2CC[C@H]1C2 [Example 727] |
|  |  |  | B (EC1.5 1-25 μM) | ≥ 150 | CC1(CCC(=O)NCc2ccc(NC(=O)N3c4nc(-c5cccc(C(F)(F)F)c5)ccc4N4CC[C@H]3C4)cc2)N=N1 [Example 548] |
|  |  |  | B (EC1.5 1-25 μM) | ≥ 150 | O=C(Nc1cncc(F)c1)N1c2nc(-c3cncc(Cl)c3)ccc2N2CCC1CC2 [Example 545] |
| A (EC1.5<1 μM) | ≥ 150 |  |  |  | O=C(Nc1cccc(-c2cnco2)c1)N1c2nc(N3CCC[C@@H](C(F)(F)F)C3)ccc2N2CC[C@H]1C2 [Example 717] |
| A (EC1.5<1 μM) | ≥ 150 |  |  |  | CC(C)(C)OC(=O)NCCCc1ccc(NC(=O)N2c3nc(-c4cccc(C(F)(F)F)c4)ccc3N3CC[C@H]2C3)cc1-c1cnco1 [Example 750] |
| B (EC1.5 1-25 μM) | ≥ 150 |  |  |  | O=C(NCCCCn1ccnc1)N1c2nc(-c3cccc(C(F)(F)F)c3)ccc2N2CC[C@H]1C2 [Example 689] |
| A (EC1.5<1 μM) | ≥ 150 |  |  |  | O=C(Nc1ccncc1)N1c2nc(-c3cccc(C(F)(F)F)c3)ccc2N2CC[C@@H]1C2 [Example 824] |
|  |  |  | B (EC1.5 1-25 μM) | ≥ 150 | O=C(NCCCc1ccccc1)N1c2nc(-c3cccc(C(F)(F)F)c3)ccc2N2CC[C@H]1C2 [Example 599] |
|  |  |  | B (EC1.5 1-25 μM) | ≥ 150 | O=C(Nc1cnccn1)N1c2nc(-c3cccc(N4CCOCC4)c3)ccc2N2CCC[C@H]1C2 [Example 560] |
|  |  |  | B (EC1.5 1-25 μM) | ≥ 150 | CC(C)(C)OC(=O)N1CCCc2ccc(NC(=O)N3c4nc(-c5cccc(C(F)(F)F)c5)ccc4N4CC[C@H]3C4)cc21 [Example 610] |
| A (EC1.5<1 μM) | ≥ 150 |  |  |  | CS(=O)(=O)Nc1cccc(NC(=O)N2c3nc(-c4cccc(C(F)(F)F)c4)ccc3N3CC[C@H]2C3)c1 [Example 642] |
| B (EC1.5 1-25 μM) | ≥ 150 |  |  |  | O=C(Nc1nccc(N2CCNCC2)n1)N1c2nc(-c3cccc(C(F)(F)F)c3)ccc2N2CC[C@H]1C2 [Example 745] |
|  |  |  | B (EC1.5 1-25 μM) | ≥ 150 | O=C(Nc1ccccn1)N1c2nc(-c3cccc(Cl)c3)ccc2N2CCC1CC2 [Example 533] |
| A (EC1.5<1 μM) | ≥ 150 |  |  |  | CS(=O)(=O)c1cccc(-c2ccc3c(n2)N(C(=O)Nc2cccc(-c4cnco4)c2)[C@H]2CCN3C2)c1 [Example 710] |
|  |  |  | B (EC1.5 1-25 μM) | ≥ 150 | O=C(Nc1ccccn1)N1c2nc(-c3cccc(N4CCOCC4)c3)ccc2N2CCC[C@H]1C2 [Example 536] |
|  |  |  | B (EC1.5 1-25 μM) | ≥ 150 | O=C(Nc1ccncn1)N1c2nc(-c3cncc(Cl)c3)ccc2N2CCC1CC2 [Example 576] |

The next lines start with the molecule.

| Compound | Tryp AVG EC1.5 (μM) [1] | Emax (Trp mass spectrometry assay) [%] | Tryp AVG EC1.5 (μM) [2] | Tryp AVG EC1.5 (μM) [3] | Emax (Trp peptide substrate) [%] |
| --- | --- | --- | --- | --- | --- |
| Cc1nc(NC(=O)N2c3nc(-c4cccc(C(F)(F)F)c4)ccc3N3CC[C@H]2C3)nc2c1CCC2 [Example 91] |  | ≥ 150 | B (EC1.5 1-25 μM) |  |  |
| CN(C)c1cccc(-c2ccc3c(n2)N(C(=O)Nc2ccccn2)[C@@H]2CCCN3C2)c1 [Example 251] |  |  |  | C (EC1.5>25 μM) | ≥ 150 |
| COc1cc(NC(=O)N2c3nc(-c4ccccc4C(F)(F)F)ccc3N3CC[C@H]2C3)ncn1 [Example 134] |  | < 150 | C (EC1.5>25 μM) |  |  |
| O=C(Nc1cncc(F)c1)N1c2nc(-c3cccc(Cl)c3)ccc2N2CCC1CC2 [Example 521] |  |  |  | B (EC1.5 1-25 μM) | ≥ 150 |
| Cc1cnccc1NC(=O)N1c2nc(-c3cccc(C(F)(F)F)c3)ccc2N2CCC[C@H]1C2 [Example 37] |  | ≥ 150 |  |  |  |
| O=C(Nc1ccncc1F)N1c2nc(-c3cccc(C(F)(F)F)c3)ccc2N2CC[C@H]1C2 [Example 15] |  | ≥ 150 |  |  |  |
| O=C(Nc1cncc(F)c1)N1c2nc(-c3cncc(C(F)(F)F)c3)ccc2N2CCC[C@H]1C2 [Example 411] |  |  |  | A (EC1.5<1 μM) | ≥ 150 |
| O=C(Nc1ccccn1)N1c2nc(-c3ccnc(N4CCC(F)(F)C4)c3)ccc2N2CC[C@H]1C2 [Example 388] |  |  |  | A (EC1.5<1 μM) | ≥ 150 |
| O=C(Nc1ccncn1)N1c2nc(N3CCCC(C(F)(F)F)C3)ccc2N2CCC[C@@H]1C2 (stereo partly drawn) [Example 308] |  |  |  | C (EC1.5>25 μM) | ≥ 150 |
| O=C(Nc1ccc(F)cn1)N1c2nc(C3CCCC(C(F)(F)F)C3)ccc2N2CC[C@H]1C2 (stereo partly drawn) [Example 144] |  | ≥ 150 | B (EC1.5 1-25 μM) |  |  |
| O=C(Nc1cccnc1)N1c2nc(-c3cccc(Cl)c3)ccc2N2CCC1CC2 [Example 496] |  |  |  | A (EC1.5<1 μM) | ≥ 150 |
| CC1CN2CC1N(C(=O)Nc1ccncc1)c1nc(-c3cccc(C(F)(F)F)c3)ccc12 (stereo not drawn) [Example 114] |  | ≥ 150 | B (EC1.5 1-25 μM) |  |  |
| Cc1cnc(NC(=O)N2c3nc(N4CCCC(C(F)(F)F)C4)ccc3N3CCC[C@@H]2C3)s1 (stereo partly drawn) [Example 311] |  |  |  | C (EC1.5>25 μM) | < 150 |
| COc1cc(NC(=O)N2c3nc(-c4cccc(C#N)c4)ccc3N3CC[C@H]2C3)ncn1 [Example 140] |  | ≥ 150 | A (EC1.5<1 μM) |  |  |
| O=C(Nc1ccncc1Cl)N1c2nc(-c3cccc(C(F)(F)F)c3)ccc2N2CC[C@H]1C2 [Example 96] |  | ≥ 150 | B (EC1.5 1-25 μM) |  |  |
| O=C(Nc1cnccn1)N1c2nc(N3CCCC(C(F)(F)F)C3)ccc2N2CCC[C@@H]1C2 (stereo partly drawn) [Example 307] |  |  |  | B (EC1.5 1-25 μM) | ≥ 150 |

| Compound | Tryp AVG EC1.5 (μM) [1] | Emax (Trp mass spectrometry assay) [%] | Tryp AVG EC1.5 (μM) [2] | Tryp AVG EC1.5 (μM) [3] | Emax (Trp peptide substrate) [%] |
| --- | --- | --- | --- | --- | --- |
| Cc1cnccc1NC(=O)N1c2nc(-c3cccc(Cl)c3)ccc2N2CC[C@H]1C2 [Example 44] |  | ≥ 150 |  |  |  |
| CN(C)c1cc(NC(=O)N2c3nc(N4CCCC(C(F)(F)F)C4)ccc3N3CC[C@H]2C3)ccn1 (stereo partly drawn) [Example 216] |  | ≥ 150 | A (EC1.5<1 μM) |  |  |
| CS(=O)(=O)c1cncc(-c2ccc3c(n2)N(C(=O)Nc2cnccn2)[C@H]2CCCN3C2)c1 [Example 378] |  |  |  | A (EC1.5<1 μM) | ≥ 150 |
| COc1cncc(NC(=O)N2c3nc(-c4cccc(C#N)c4)ccc3N3CC[C@H]2C3)n1 [Example 190] |  | ≥ 150 | B (EC1.5 1-25 μM) |  |  |
| COc1cc(NC(=O)N2c3nc(-c4cccc(Cl)c4)ccc3N3CCC2CC3)ncn1 [Example 522] |  |  |  | B (EC1.5 1-25 μM) | ≥ 150 |
| Cc1cncc(-c2ccc3c(n2)N(C(=O)Nc2cncc(F)c2)[C@H]2CCCN3C2)c1 [Example 509] |  |  |  | A (EC1.5<1 μM) | ≥ 150 |
| CS(=O)(=O)c1cncc(-c2ccc3c(n2)N(C(=O)Nc2ccccn2)[C@H]2CCN3C2)c1 [Example 328] |  |  |  | B (EC1.5 1-25 μM) | ≥ 150 |
| Cn1ccc(NC(=O)N2c3nc(-c4cccc(Cl)c4)ccc3N3CC[C@H]2C3)n1 [Example 109] |  | ≥ 150 | B (EC1.5 1-25 μM) |  |  |
| O=C(Nc1ccccn1)N1c2nc(-c3cccc(CC(O)CO)c3)ccc2N2CC[C@H]1C2 (stereo partly drawn) [Example 354] |  |  |  | A (EC1.5<1 μM) | ≥ 150 |
| CS(=O)(=O)c1cncc(-c2ccc3c(n2)N(C(=O)Nc2cccnn2)[C@H]2CCCN3C2)c1 [Example 380] |  |  |  | A (EC1.5<1 μM) | ≥ 150 |
| COc1nccc(NC(=O)N2c3nc(-c4cccc(C(F)(F)F)c4)ccc3N3CCC2CC3)n1 [Example 169] |  | ≥ 150 | B (EC1.5 1-25 μM) |  |  |
| Cc1ccc(-c2ccc3c(n2)N(C(=O)Nc2cccnn2)[C@H]2CCCN3C2)cn1 [Example 467] |  |  |  | B (EC1.5 1-25 μM) | ≥ 150 |
| COc1cc(NC(=O)N2c3nc(-c4cccc(N(C)C)c4)ccc3N3CCC[C@H]2C3)ncn1 [Example 385] |  |  |  | A (EC1.5<1 μM) | ≥ 150 |
| COc1cc(NC(=O)N2c3nc(-c4cccc(C#N)c4)ccc3N3CCC[C@@H]2C3)ncn1 [Example 209] |  | < 150 | C (EC1.5>25 μM) |  |  |
| O=C(Nc1ccncc1F)N1c2nc(-c3cccc(Cl)c3)ccc2N2CCC[C@H]1C2 [Example 421] |  |  |  | A (EC1.5<1 μM) | ≥ 150 |
